Literature values in patent US20110257197A1 (Nanjing Cavendish Bio-Engineering Technology Co., Ltd., priority 2008, published 2011).
≈ marks a conversion by molar mass, not a printed value. Entries after “also recorded” stand apart in the source; their conditions may differ. Read-outs that look alike come from different tables or passages of the source.

How the values were obtained:
[1] = tested on: rats
[2] = tested on: mice
[3] = tested on: rat; details: i.v.
[4] = in vivo
[5] = tested on: rodent; details: two-year studies
[6] = tested on: mice; details: i.v.
[7] = tested on: mice; remark: listed apart in the source
[8] = tested on: guinea pig; details: indicates possibility of causing allergy
[9] = in vivo; remark: listed apart in the source
[10] = tested on: red blood cell; details: i.v.
[11] = tested on: Candida species (including strains of Candida krusei, Candida glabrata, and Candida albicans resistant to fluconazole); details: in vitro
[12] = tested on: Aspergillus fungi; details: in vitro
[13] = tested on: Scedosporium and Fusarium species; details: in vitro
[14] = listed as sulfobutyl ether β-cyclodextrin sodium

Compound: CC(O)CO (stereo not shown) [propylene glycol]
- NOAEL of maternal toxicity in teratogenic sensitive period [1]: 1600 mg/kg/day. Ethanol could cause
- NOAEL of teratogenic toxicity [1]: 1600 mg/kg/day. Ethanol could cause
- NOAEL of maternal toxicity in teratogenic sensitive period [2]: 1600 mg/kg/day. Ethanol could cause
- NOAEL of teratogenic toxicity [2]: 1600 mg/kg/day. Ethanol could cause
- LD50 [3]: i.v. LD50 ≧ 5000 mg/kg.
- long term fertility study [4]: studies showed that no abnormity had

Compound: sulfobutyl ether β-cyclodextrin sodium [SBECD]
- carcinogenicity (pancreatic carcinoma) [5]: carcinogenic
- LD50 [6]: LD50 > 2000 mg/kg
- LD50 [3]: LD50 > 2000 mg/kg
- dose at which the weight of mice was significantly decreased [7]: 18 mg/kg/day or higher
- guinea pig maximization test (GPMT) result [8]: positive
- findings on repeated administration [9]: vacuale formation in the urinary-tract epithelium; also recorded: activated macrophages in liver and lung
- concentration of significant heamolysis [10]: at 0.04 mg/ml.
- concentration at which mild hemolysis occurs [10, 14]: 20000 ng/mL
- concentration of significant heamolysis [10, 14]: 40000 ng/mL

Compound: CCO [ethanol]
- LD50 [6]: 1440 mg/kg
- LD50 [3]: ethanol, in rat, i.v. LD50 = 1973 mg/kg;

Compound: C[C@@H](c1ncncc1F)[C@](O)(Cn1cncn1)c1ccc(F)cc1F [voriconazole]
- activity against Candida species [11]: active
- activity against all tested Aspergillus fungi [12]: active
- activity against other pathogenic fungi such as Scedosporium and Fusarium species [13]: in vitro activity
- solubility in water (pH 3): 200 µg/mL (≈ 573 µM)
- solubility in water (pH 7): almost insoluble
